Key:
[1] = target: SCF^β-TrCP1 (Homo sapiens, UniProt Q9Y297); assay: In vitro ubiquitination assay (GST-Wee1KR substrate, immunoblotting); format: biochemical; conditions: immunoblots quantitated by ImageJ
Method: Components of SCF complex (SKP1, Cul1, Rbx1, and hemagglutinin (HA)-tagged β-TrCP) were expressed in HEK293T cells. Anti-HA antibody was added into the SCF complexes expressed HEK 293T cell lysate and rotated at 4°C for 1 h. Aliquots of this mixture were added to protein G beads and rotated at 4°C for 30 min. After washing the beads in cell lysis buffer three times, the tube was centrifuged at 20,400 × g for 5 min and the supernatant was discarded. The protein on the beads was used as recombinant SCF^β-TrCP complexes. Aliquots of SCF complexes bound on the beads were then added to ubiquitination reactions (10 mM Tris pH = 7.5, 5 mM MgCl2, 1 mM DTT, 1 mM ATP, 20 mM creatine phosphate, 0.1 mg/mL creatine kinase, 5 mM NaF, 1 mM Na3VO4, 2 mg/mL ubiquitin, 0.5 μg E1 enzyme, 2 μg E2 enzyme) in a final volume of 30 µL. Compounds of 100 µM final concentration were added to reactions, and GST-Wee1KR was added as substrate 15 min later. The reaction mixtures were incubated at 37°C for 2 h and were further examined by immunoblotting.
Immunoblotting followed by in vitro ubiquitination assay was performed using anti-human Wee1A [30]. Immunoblotting in the analysis of protein degradation was performed using anti-phospho-β-catenin (Ser33/37/Thr41) antibody (1:1000, Cell Signaling Technology, Danvers, MA, USA), anti-phospho-IκBα (Ser32) (14D4), Rabbit mAb (1:1000, Cell Signaling Technology), anti-β-catenin (D10A8) (1:1000, Cell Signaling Technology), anti-IκBα antibody (1:1000, Cell Signaling Technology), and Goat polyclonal anti-rabbit IgG antibody (1:5000, Proteintech, Am Klopferspitz, Planegg-Martinsried, Germany). The transferred membrane was incubated with specific antibody, then detected using Super Signal West Pico chemiluminescent substrate (Thermo Fisher Scientific) and FUSION SOLO S (VILBER LOURMAT/MS equipment, Zi Sud torcy, Marne-la-vallee, France). The quantification of immunoblotting results was performed using ImageJ software.

[2] = system: NF-κB transcription activity in HeLa cells; assay: NF-κB luciferase reporter assay (pGL-4.32), TNF-α induced; format: cell-based
Method: For NF-κB transcription activity, PGL-4.32 contains five copies of the NF-κB response element, which is responsible for the transcription of the luciferase reporter gene, with pRL-SV40 as the internal control. NF-κB transcription activity was determined by firefly luciferase expression and normalized by renilla luciferase level. pGL-4.32 reporter plasmids (Promega) and pRL-sv40 renilla luciferase reporter (Promega) were co-transfected into HeLa cells using Lipofectamine 3000 reagent kit. Subsequently, 24 h after transfection, cells were cultured with the compounds of different dilutions for another 24 h. Furthermore, TNF-α was added, and the plates were cultured for another 4 h. The cells were lysed, and the luminescence was measured using the Luciferase Assay System. A minimum of three samples were taken for each sample.

[3] = target: SKP2 (Homo sapiens, UniProt Q13309); assay: Binding to SKP2 (data not shown)
[4] = target: polo-box domain of Plk1 (Homo sapiens, UniProt P53350); assay: Binding to polo-box domain of Plk1 (data not shown)
[5] = system: 14-3-3 proteins; assay: Binding to 14-3-3 proteins (data not shown)
[6] = target: Pin1 (Homo sapiens, UniProt Q13526); assay: Binding to Pin1 (data not shown)
[7] = system: HeLa cells; assay: Cytotoxicity / cell death; format: cell-based; conditions: data not shown

Chain of SKP2 (Q13309 whole entry, species assumed, the tested form may be a part): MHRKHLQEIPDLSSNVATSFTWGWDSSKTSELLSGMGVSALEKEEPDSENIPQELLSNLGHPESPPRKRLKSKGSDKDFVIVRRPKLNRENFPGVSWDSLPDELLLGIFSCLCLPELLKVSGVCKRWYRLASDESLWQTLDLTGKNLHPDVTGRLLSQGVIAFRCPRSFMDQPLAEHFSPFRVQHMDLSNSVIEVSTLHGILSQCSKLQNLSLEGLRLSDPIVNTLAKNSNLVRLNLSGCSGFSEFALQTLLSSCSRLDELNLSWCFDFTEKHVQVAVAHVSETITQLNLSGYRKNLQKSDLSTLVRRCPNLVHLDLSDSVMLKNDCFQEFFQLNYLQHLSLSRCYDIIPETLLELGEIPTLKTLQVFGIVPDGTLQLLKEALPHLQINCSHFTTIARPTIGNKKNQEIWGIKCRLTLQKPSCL
Chain of polo-box domain of Plk1 (P53350 326-603 limits assumed): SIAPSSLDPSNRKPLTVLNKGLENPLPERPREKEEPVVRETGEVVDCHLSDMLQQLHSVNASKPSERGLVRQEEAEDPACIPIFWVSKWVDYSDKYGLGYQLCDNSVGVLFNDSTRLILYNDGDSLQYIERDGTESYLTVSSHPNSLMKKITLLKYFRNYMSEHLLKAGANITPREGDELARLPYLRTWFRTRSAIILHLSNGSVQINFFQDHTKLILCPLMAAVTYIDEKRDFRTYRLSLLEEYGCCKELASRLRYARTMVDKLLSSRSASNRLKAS
Chain of SCF^β-TrCP1 (Q9Y297 whole entry): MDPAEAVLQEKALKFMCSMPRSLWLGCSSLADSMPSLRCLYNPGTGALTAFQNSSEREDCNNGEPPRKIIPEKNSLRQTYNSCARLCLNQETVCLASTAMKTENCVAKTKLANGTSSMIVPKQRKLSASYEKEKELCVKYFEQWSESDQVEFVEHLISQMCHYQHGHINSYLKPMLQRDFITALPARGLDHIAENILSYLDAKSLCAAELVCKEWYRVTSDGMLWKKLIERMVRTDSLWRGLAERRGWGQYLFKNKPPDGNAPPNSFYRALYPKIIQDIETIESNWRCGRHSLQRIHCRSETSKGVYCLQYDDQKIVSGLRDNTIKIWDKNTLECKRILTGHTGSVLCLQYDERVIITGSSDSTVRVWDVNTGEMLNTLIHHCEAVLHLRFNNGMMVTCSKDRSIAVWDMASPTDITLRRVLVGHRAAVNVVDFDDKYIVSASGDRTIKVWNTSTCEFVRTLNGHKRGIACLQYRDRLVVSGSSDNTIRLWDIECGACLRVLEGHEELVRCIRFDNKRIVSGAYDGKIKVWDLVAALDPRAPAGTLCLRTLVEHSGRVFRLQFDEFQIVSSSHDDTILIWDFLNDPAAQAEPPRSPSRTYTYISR
Chain of SCF^β-TrCP1 (P63208 whole entry partner): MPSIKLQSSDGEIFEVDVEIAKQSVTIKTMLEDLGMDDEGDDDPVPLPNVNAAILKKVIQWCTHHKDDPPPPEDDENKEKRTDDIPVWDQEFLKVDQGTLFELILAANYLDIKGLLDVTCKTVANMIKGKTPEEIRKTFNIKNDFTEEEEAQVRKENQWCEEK
Chain of SCF^β-TrCP1 (Q13616 whole entry partner): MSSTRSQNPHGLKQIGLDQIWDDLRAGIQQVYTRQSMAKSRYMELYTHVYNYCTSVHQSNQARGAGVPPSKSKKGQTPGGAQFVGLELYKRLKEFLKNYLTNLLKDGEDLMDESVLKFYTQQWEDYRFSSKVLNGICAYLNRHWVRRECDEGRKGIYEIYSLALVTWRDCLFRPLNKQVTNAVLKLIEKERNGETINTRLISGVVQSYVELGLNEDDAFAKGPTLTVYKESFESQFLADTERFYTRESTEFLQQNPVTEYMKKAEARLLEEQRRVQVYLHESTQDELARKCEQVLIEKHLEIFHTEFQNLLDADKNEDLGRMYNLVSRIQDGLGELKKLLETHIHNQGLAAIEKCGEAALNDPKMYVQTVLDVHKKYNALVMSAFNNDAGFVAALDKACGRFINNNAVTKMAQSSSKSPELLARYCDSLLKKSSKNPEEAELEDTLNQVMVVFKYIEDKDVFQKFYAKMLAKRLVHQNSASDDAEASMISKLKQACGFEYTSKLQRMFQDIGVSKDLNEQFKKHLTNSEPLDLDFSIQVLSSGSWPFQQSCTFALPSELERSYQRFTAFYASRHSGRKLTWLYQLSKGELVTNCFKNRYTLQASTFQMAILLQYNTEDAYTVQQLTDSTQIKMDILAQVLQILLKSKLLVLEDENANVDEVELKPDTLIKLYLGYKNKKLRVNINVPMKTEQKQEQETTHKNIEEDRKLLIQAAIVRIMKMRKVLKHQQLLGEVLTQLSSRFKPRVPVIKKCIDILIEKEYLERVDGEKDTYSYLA
Chain of SCF^β-TrCP1 (P62877 whole entry partner): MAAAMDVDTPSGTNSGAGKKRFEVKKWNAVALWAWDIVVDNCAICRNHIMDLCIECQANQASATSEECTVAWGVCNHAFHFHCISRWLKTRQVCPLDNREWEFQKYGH
Chain of Pin1 (Q13526 whole entry, species assumed): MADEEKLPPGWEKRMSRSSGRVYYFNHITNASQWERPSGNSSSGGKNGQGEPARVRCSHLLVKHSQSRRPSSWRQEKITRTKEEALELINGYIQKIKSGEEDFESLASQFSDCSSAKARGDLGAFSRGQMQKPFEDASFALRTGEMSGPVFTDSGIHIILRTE

Cc1cc(O)c(C(=O)/C=C/c2cccc(O)c2)c(=O)o1 [NPD5943]
IC50 [1]: 30 µM | NF-κB transcription, % of that of the control group (DMSO, TNF-α) ([2]; 20 μM): approximately 20% | TNF-α induced NF-κB activation of transcription ([2]; 24 h compound then TNF-α 4 h): reduced NF-κB activation dose-dependently | binding to SKP2 [3]: did not bind to SKP2 at all | binding to polo-box domain of Plk1 [4]: did not observe any binding | binding to 14-3-3 proteins [5]: did not observe any binding | binding to Pin1 [6]: did not observe any binding | non-specific cytotoxicity [7]: cytotoxicity only at high concentration

From paper PMC10398414, “Isolation and characterization of β-transducin repeat-containing protein ligands screened using a high-throughput screening system” (Oncology Research, 2023)
